SMILES strings stand for the structures.

In this test the target is human IK (Homo sapiens (Human), UniProt O15554). Nature of the test: Inhibition of IK channels expressed in HEK293 cells, thallium (I) sensitive FLIPR assay. Format: cell-based. Particulars: HEK293 cells over-expressing human IK; Tl+-sensitive BTC fluorescence (FLIPR); inhibition of activity induced by Ca2+-ionophore A23187. As to the method:
Following experiment determines the ability of a test compound to inhibit the activity of IK channels heterologously expressed in human HEK293 cells, and was used as the primary screen. The ability is determined as per cent inhibition of the activity induced by addition of the Ca^2+-ionophore A23187 (considered a maximum response). The activity is determined using a standard thallium (I) sensitive assay, e.g. using a fluorometric method in a Fluorescent Image Plate Reader (FLIPR) as described below in more detail.
Full concentration/response curves are generated and IC50 values are calculated based on the degree of inhibition of the maximum response. IC50 values (Inhibitory Concentration) represent the concentration of the test substance at which 50% of the maximum channel activity is inhibited.
Human HEK293 cells over-expressing human IK are grown in culture medium (DMEM supplemented with 10% foetal bovine serum), in polystyrene culture flasks ([…]) in a humidified atmosphere of 5% CO2 in air, at 37° C. Cell confluence should be 80-90% on day of plating. Cells are rinsed with 4 mL of PBS (phosphate buffered saline) and incubated 2 min with 1 mL of Trypsin-EDTA. After addition of 25 mL of culture medium cells are re-suspended by trituration with a 25 mL pipette.
The cells are seeded at a density of ˜3×10^6 cells/mL (25 μL/well) in black-walled, clear bottom, 384-well plates pre-treated with 0.01 g/L poly-D-lysin (20 μL/well for ≧30 min). Plated cells were allowed to proliferate for 24 h before loading with dye.
BTC-AM ([…], Invitrogen) is added 25.5 μl DMSO. The BTC-AM stock solution (2 mM) is diluted to a final concentration of 2 μM in […] assay buffer (in mM: 140 Na^+-gluconate, 2.5 K^+-gluconate, 6 Ca2^+-gluconate, 1 Mg^2+ gluconate, 5 glucose, 10 HEPES, pH 7.3) containing 2 μM ouabain, 2 mM amaranth and 1 mM tartrazine.
The culture medium is aspirated from the wells, and 25 μl of the BTC-AM loading solution are added to each well. The cells are incubated at 37° C. for 60 min.
After the loading period, the Tl^+-sensitive BTC fluorescence signal is measured over time using a FLIPR.
• Temperature: Room temp. • First addition: 12 μl test or control compound after 15 sec at a rate of 30 μL/sec and starting height of 20 μL • Second addition: 12 μL stimulus buffer (Cl^− free assay buffer supplemented with 1 mM Tl2SO4, 5 μM A23187 as well as the quenchers amaranth (2 mM) and tartrazine (1 mM)) is added after an additional 3 minutes at a rate of 30 μL/sec and starting height of 30 μL • Reading intervals: First sequence—3 sec×5, 2 sec×24 and 5 sec×25 • Second sequence—1 sec×5, 2 sec×24 and 5 sec×36
Addition plates (compound plate and stimulus plate) are placed in positions 2 and 3, respectively. Cell plates are placed in position 1 and run using the “IK blocker (EtOH wash, two additions)” program. FLIPR will then take the appropriate measurements in accordance with the interval settings above. Fluorescence obtained after stimulation is corrected for the mean basal fluorescence (in Cl^− free assay buffer).
Full concentration/response curves are generated and IC50 values (“Inhibitory Concentration”, i.e. the concentration of the test substance at which 50% of the maximum channel activity is inhibited) are calculated. The responses are calculated based on peak values.
For `COc1ccccc1-c1ccccc1-c1nnnn1-c1ccccc1Cl` [Compound 49, 1-(2-Chlorophenyl)-5-[2-(2-methoxyphenyl)phenyl]-1H-1,2,3,4-tetrazole], the IC50 was 540 nM. This counts as sub-micromolar.
For the compound `Fc1ccccc1-n1nnnc1-c1ccccc1-c1ccccc1OC(F)(F)F` [Compound 15, 1-(2-Fluorophenyl)-5-{2-[2-(trifluoromethoxy)phenyl]phenyl}-1H-1,2,3,4-tetrazole], 1700 nM corresponded to half-maximal inhibition (IC50).
`COC(=O)COc1ccccc1-c1ccccc1-c1nnnn1-c1ccccc1F` [Compound 8, Methyl 2-(2-{2-[1-(2-fluorophenyl)-1H-1,2,3,4-tetrazol-5-yl]phenyl}phenoxy)acetate] registered an IC50 of 590 nM.
`Fc1ccccc1-c1ccccc1-c1nnnn1-c1ccccc1OC(F)F` [Compound 58, 1-[2-(Difluoromethoxy)phenyl]-5-[2-(2-fluorophenyl)phenyl]-1H-1,2,3,4-tetrazole] gave an IC50 of 1100 nM.
The result for `CN(C)c1ccccc1-c1ccccc1-c1nnnn1-c1ccccc1F` [Compound 26, 2-{2-[1-(2-Fluorophenyl)-1H-1,2,3,4-tetrazol-5-yl]phenyl}-N,N-dimethylaniline] reads 820 nM; that for `Fc1ccccc1-n1nnnc1-c1ccccc1-c1ccccc1C(F)F` [Compound 32, 5-{2-[2-(Difluoromethyl)phenyl]phenyl}-1-(2-fluorophenyl)-1H-1,2,3,4-tetrazole], 870 nM; that for `COc1ccccc1-c1ccccc1-c1nnnn1-c1ccccc1OC` [Compound 51, 1-(2-Methoxyphenyl)-5-[2-(2-methoxyphenyl)phenyl]-1H-1,2,3,4-tetrazole], 1200 nM.
Consider `O=Cc1ccccc1-c1ccccc1-c1nnnn1-c1ccccc1F` [Compound 21, 2-{2-[1-(2-Fluorophenyl)-1H-1,2,3,4-tetrazol-5-yl]phenyl}benzaldehyde], for which the half-inhibitory concentration (IC50) was 550 nM.
In turn, `CSc1ccccc1-c1ccccc1-c1nnnn1-c1ccccc1F` [Compound 14, 1-(2-Fluorophenyl)-5-{2-[2-(methylthio)phenyl]phenyl}-1H-1,2,3,4-tetrazole] came in with an IC50 of 460 nM.
As for `CC(C)Oc1ccccc1-c1ccccc1-c1nnnn1-c1ccccc1F` [Compound 9, 1-(2-Fluorophenyl)-5-{2-[2-(propan-2-yloxy)phenyl]phenyl}-1H-1,2,3,4-tetrazole], the IC50 amounted to 770 nM.
With `COc1ccccc1-c1ccccc1-c1nnnn1-c1ccccc1OC(F)F` [Compound 59, 1-[2-(Difluoromethoxy)phenyl]-5-[2-(2-methoxyphenyl)phenyl]-1H-1,2,3,4-tetrazole], it took 69 nM to reach half-maximal inhibition (IC50).
As to `Fc1ccccc1-n1nnnc1-c1ccccc1-c1ccccc1` [Compound 40, 1-(2-Fluorophenyl)-5-(2-phenylphenyl)-1H-1,2,3,4-tetrazole], it took 800 nM to reach half-maximal inhibition (IC50).
Turning to `Fc1ccccc1-n1nnnc1-c1ccccc1-c1ccccc1OCC1CC1` [Compound 6, 5-{2-[2-(Cyclopropylmethoxy)phenyl]phenyl}-1-(2-fluorophenyl)-1H-1,2,3,4-tetrazole], the midpoint of inhibition, the IC50, lay at 710 nM.
As to `OCc1ccccc1-c1ccccc1-c1nnnn1-c1ccccc1F` [Compound 28, (2-{2-[1-(2-Fluorophenyl)-1H-1,2,3,4-tetrazol-5-yl]phenyl}phenyl)methanol], half-maximal inhibition (IC50) required 770 nM.
The result for `Fc1ccccc1-n1nnnc1-c1ccccc1-c1ccccc1Br` [Compound 23, 5-[2-(2-Bromophenyl)phenyl]-1-(2-fluorophenyl)-1H-1,2,3,4-tetrazole] reads 550 nM; that for `Nc1ccccc1-c1ccccc1-c1nnnn1-c1ccccc1F` [Compound 27, 2-{2-[1-(2-Fluorophenyl)-1H-1,2,3,4-tetrazol-5-yl]phenyl}aniline], 900 nM; that for `COCOc1ccccc1-c1ccccc1-c1nnnn1-c1ccccc1F` [Compound 16, 1-(2-Fluorophenyl)-5-{2-[2-(methoxymethoxy)phenyl]phenyl}-1H-1,2,3,4-tetrazole], 190 nM.
The result for `COc1ccccc1-c1ccccc1-c1nnnn1-c1ccccc1F` [Compound 13, 1-(2-Fluorophenyl)-5-[2-(2-methoxyphenyl)phenyl]-1H-1,2,3,4-tetrazole] reads 110 nM; that for `Oc1ccccc1-c1ccccc1-c1nnnn1-c1ccccc1F` [Compound 2, 2-{2-[1-(2-Fluorophenyl)-1H-1,2,3,4-tetrazol-5-yl]phenyl}phenol], 5900 nM.
In turn, `COCCOc1ccccc1-c1ccccc1-c1nnnn1-c1ccccc1F` [Compound 4, 1-(2-Fluorophenyl)-5-{2-[2-(2-methoxyethoxyl)phenyl]phenyl}-1H-1,2,3,4-tetrazole] came in with an IC50 of 30 nM.
Turning to `N#Cc1ccccc1-n1nnnc1-c1ccccc1-c1ccccc1OC(F)F` [Compound 62, 2-(5-{2-[2-(Difluoromethoxy)phenyl]phenyl}-1H-1,2,3,4-tetrazol-1-yl)benzonitrile], the IC50 is 210 nM.
Compound `FCOc1ccccc1-c1ccccc1-c1nnnn1-c1ccccc1F` [Compound 12, 5-{2-[2-(Fluoromethoxy)phenyl]phenyl}-1-(2-fluorophenyl)-1H-1,2,3,4-tetrazole] displayed an IC50 of 300 nM.
For `CCc1ccccc1-c1ccccc1-c1nnnn1-c1ccccc1F` [Compound 20, 5-[2-(2-Ethylphenyl)phenyl]-1-(2-fluorophenyl)-1H-1,2,3,4-tetrazole], inhibition was half-maximal at 290 nM (IC50).
In turn, `COc1ccccc1-c1ccccc1-c1nnnn1-c1ccccc1O` [Compound 53, 2-{5-[2-(2-Methoxyphenyl)phenyl]-1H-1,2,3,4-tetrazol-1-yl}phenol] displayed an IC50 of 1200 nM.
In turn, `COCc1ccccc1-c1ccccc1-c1nnnn1-c1ccccc1F` [Compound 29, 1-(2-Fluorophenyl)-5-{2-[2-(methoxymethyl)phenyl]phenyl}-1H-1,2,3,4-tetrazole] showed an IC50 of 58 nM.
For `Fc1ccccc1-n1nnnc1-c1ccccc1-c1ccccc1Cl` [Compound 24, 5-[2-(2-Chlorophenyl)phenyl]-1-(2-fluorophenyl)-1H-1,2,3,4-tetrazole], the midpoint of inhibition, the IC50, lay at 360 nM. This IC50 lies about 6.2-fold higher than the previous one.
Turning to `CCOc1ccccc1-c1ccccc1-c1nnnn1-c1ccccc1F` [Compound 3, 5-[2-(2-Ethoxyphenyl)phenyl]-1-(2-fluorophenyl)-1H-1,2,3,4-tetrazole], half-maximal inhibition (IC50) required 37 nM.
In turn, `N#Cc1ccccc1-c1ccccc1-c1nnnn1-c1ccccc1F` [Compound 31, 2-{2-[1-(2-Fluorophenyl)-1H-1,2,3,4-tetrazol-5-yl]phenyl}benzonitrile] registered an IC50 of 110 nM.
Consider `Fc1ccccc1-c1ccccc1-c1nnnn1-c1ccccc1Cl` [Compound 48, 1-(2-Chlorophenyl)-5-[2-(2-fluorophenyl)phenyl]-1H-1,2,3,4-tetrazole], for which the IC50 came to 1000 nM.
Take `Fc1ccccc1-n1nnnc1-c1ccccc1-c1ccccc1OC(F)F` [Compound 5, 5-{2-[2-(Difluoromethoxy)phenyl]phenyl}-1-(2-fluorophenyl)-1H-1,2,3,4-tetrazole]: 290 nM corresponded to half-maximal inhibition (IC50).
For `NC(=O)COc1ccccc1-c1ccccc1-c1nnnn1-c1ccccc1F` [Compound 17, 2-(2-{2-[1-(2-Fluorophenyl)-1H-1,2,3,4-tetrazol-5-yl]phenyl}phenoxy)acetamide], the IC50 is 1000 nM.
In turn, `Fc1ccccc1-c1ccccc1-c1nnnn1-c1ccccc1F` [Compound 25, 1-(2-Fluorophenyl)-5-[2-(2-fluorophenyl)phenyl]-1H-1,2,3,4-tetrazole] showed an IC50 of 700 nM.
As for `O/N=C/c1ccccc1-c1ccccc1-c1nnnn1-c1ccccc1F` [Compound 30, (E)-N-[(2-{2-[1-(2-Fluorophenyl)-1H-1,2,3,4-tetrazol-5-yl]phenyl}phenyl)methylidene]hydroxylamine], the figure is 57 nM; as for `Fc1ccccc1-n1nnnc1-c1ccccc1-c1ccccc1C(F)(F)F` [Compound 22, 1-(2-Fluorophenyl)-5-{2-[2-(trifluoromethyl)phenyl]phenyl}-1H-1,2,3,4-tetrazole], 1700 nM.

The IC50 is the point on the concentration scale where inhibition reaches its midpoint. A low value points to greater potency in that assay.

Source of the values: US9556132B2, “Tetrazole derivatives and their use as potassium channel modulators” (SANIONA A/S, priority 2012, dated 2017).
